Measured values as given in the Kinase Knowledgebase extract (Sharma et al. 2016).

Target: EGFR (UniProt P00533)
Sequence (P00533 whole entry, looked up): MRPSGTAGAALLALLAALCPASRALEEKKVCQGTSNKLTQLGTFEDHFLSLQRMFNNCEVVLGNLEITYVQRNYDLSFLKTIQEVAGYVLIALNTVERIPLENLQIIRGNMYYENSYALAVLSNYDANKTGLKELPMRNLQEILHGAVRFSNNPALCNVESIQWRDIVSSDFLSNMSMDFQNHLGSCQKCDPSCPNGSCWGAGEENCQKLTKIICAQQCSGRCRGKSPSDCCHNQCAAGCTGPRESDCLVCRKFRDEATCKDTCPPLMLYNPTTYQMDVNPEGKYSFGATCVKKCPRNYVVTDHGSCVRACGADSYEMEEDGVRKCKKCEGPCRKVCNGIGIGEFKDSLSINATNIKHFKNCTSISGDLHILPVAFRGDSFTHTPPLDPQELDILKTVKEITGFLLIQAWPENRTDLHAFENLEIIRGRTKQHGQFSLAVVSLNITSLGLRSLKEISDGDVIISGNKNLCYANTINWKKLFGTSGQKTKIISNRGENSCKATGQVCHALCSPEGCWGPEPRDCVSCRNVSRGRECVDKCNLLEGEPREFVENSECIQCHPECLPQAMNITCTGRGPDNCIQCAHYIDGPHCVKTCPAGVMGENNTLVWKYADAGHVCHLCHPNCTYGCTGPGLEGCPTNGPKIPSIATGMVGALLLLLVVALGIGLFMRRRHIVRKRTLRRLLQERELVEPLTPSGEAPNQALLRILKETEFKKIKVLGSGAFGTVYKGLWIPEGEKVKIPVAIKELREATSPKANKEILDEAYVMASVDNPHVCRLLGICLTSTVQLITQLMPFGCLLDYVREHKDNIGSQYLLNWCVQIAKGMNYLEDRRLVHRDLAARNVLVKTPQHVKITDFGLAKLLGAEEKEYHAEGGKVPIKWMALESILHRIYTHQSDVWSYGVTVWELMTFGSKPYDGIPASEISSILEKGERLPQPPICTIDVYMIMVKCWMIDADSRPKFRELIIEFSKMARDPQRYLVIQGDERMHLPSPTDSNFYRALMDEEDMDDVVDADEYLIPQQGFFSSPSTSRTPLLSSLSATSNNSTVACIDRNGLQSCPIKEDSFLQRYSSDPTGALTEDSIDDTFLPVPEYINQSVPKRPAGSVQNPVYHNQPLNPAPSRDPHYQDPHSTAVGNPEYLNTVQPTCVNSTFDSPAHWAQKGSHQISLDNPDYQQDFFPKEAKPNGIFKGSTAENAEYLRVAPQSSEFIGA

SMILES | IC50 [µM]
O=C(CCO)Nc1csc2ccccc2c1=O | > 100
CCOC(=O)NC(=O)Nc1csc2ccccc2c1=O | > 100
COC(=O)C(=O)Nc1csc2ccccc2c1=O | > 100
CCNC(=O)Nc1csc2ccccc2c1=O | > 100
CNC(=O)Nc1coc2ccccc2c1=O | > 100
CCNC(=O)Nc1csc2ccc(OC)cc2c1=O | > 100
O=C(O)C(=O)Nc1csc2ccccc2c1=O | > 100
CCC(=O)Nc1csc2ccccc2c1=O | > 100
CCCCNC(=O)Nc1csc2ccccc2c1=O | > 100
CCNC(=O)Nc1csc2ccc(F)cc2c1=O | > 100
CCCCNC(=O)Nc1coc2ccccc2c1=O | > 100
O=c1cc(-c2ccccc2)oc2ccccc12 | 50
CC(C)NC(=O)Nc1coc2ccccc2c1=O | > 100
CNC(=O)Nc1csc2ccccc2c1=O | > 100
CCNC(=O)NC1=CS(=O)(=O)c2ccccc2C1=O | > 100
O=c1cc(-c2ccc(O)cc2)oc2cc(O)cc(O)c12 | 25
CC(C)(C)NC(=O)Nc1coc2ccccc2c1=O | > 100
O=C(O)C(=O)Nc1cc(=O)c2ccccc2s1 | > 100
CN(C)Cc1coc2ccccc2c1=O | > 100
CCNC(=O)Nc1coc2ccccc2c1=O | > 100
CN(C)C(=O)Nc1coc2ccccc2c1=O | > 100
CCNC(=O)Nc1csc2ccc(C)cc2c1=O | > 100
